Laboratory results reported in patent EP0215063B1, “PYRIDO (2,3-d )PYRIMIDIN DERIVATIVES” (priority 1985, dated 1986).
pIC50: −log10 of the molar value. Several values for one entry are separate records, joined by “and”; a condition that tells them apart may be missing. Identical values can stand only once. Like-named read-outs stand apart in the source and are kept apart here.

Legend:
dihydrofolate reductase = target: T1, dihydrofolate reductase (Homo sapiens, UniProt P00374); details: literature (De Graw et al.); cited from earlier work
T1 sequence (P00374 1-187): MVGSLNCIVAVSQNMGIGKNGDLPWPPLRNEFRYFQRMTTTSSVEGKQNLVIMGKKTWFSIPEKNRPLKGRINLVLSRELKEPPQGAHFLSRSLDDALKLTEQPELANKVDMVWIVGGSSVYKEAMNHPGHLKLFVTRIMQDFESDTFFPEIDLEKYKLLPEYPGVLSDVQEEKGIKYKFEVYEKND

[1] = system: Methotrexate-Resistant L-1210 Leukemia; assay: Effect on Methotrexate-Resistant L-1210 Leukemia; assay type: in vivo; details: for Mean Increased Life span in days: in vivo
[2] = target: T2, Dihydrofolate Reductase (DHFR) (Homo sapiens, UniProt P00374); assay: Inhibition of Dihydrofolate Reductase (DHFR); assay type: biochemical
T2 sequence (P00374 1-187): T1 sequence (P00374 1-187)

[3] = target: T3, Folate Polyglutamate Synthetase (Mus musculus, UniProt P48760); assay: Substrate for Folate Polyglutamate Synthetase (partially purified mouse liver FPGS); assay type: biochemical
T3 construct: Incubation with partially purified mouse liver FPGS; from tissue; host or cells: mouse liver
T3 sequence (P48760 43-587): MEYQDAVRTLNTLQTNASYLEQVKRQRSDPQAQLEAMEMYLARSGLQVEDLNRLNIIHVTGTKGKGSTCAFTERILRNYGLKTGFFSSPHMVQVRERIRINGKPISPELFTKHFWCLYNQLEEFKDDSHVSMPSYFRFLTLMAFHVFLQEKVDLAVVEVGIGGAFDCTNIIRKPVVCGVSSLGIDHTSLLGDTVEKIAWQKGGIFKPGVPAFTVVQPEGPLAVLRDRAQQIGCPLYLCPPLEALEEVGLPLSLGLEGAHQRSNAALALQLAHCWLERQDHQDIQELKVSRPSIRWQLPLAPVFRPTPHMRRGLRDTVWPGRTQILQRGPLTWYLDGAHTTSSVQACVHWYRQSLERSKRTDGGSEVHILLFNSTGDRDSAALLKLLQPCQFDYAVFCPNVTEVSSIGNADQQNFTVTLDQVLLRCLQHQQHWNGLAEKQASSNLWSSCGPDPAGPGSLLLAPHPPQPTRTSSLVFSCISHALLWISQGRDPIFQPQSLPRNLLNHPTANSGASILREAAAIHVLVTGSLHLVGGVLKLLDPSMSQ

L-1210 leukemia = assay: Increase in life span, % ILS (Table 5, title only as image); assay type: in vivo
[4] = system: X5563 Plasma Cell Myeloma; details: mouse, in vivo
6C3HED Lymphosarcoma = assay: Subcutaneous tumor growth inhibition in mice; details: mouse, in vivo
B-16 = assay: Subcutaneous tumor growth inhibition in mice; details: mouse, in vivo
[5] = system: C3H Mammary Adenocarcinoma; assay: Subcutaneous tumor growth inhibition in mice; details: mouse, in vivo
Lewis Lung Carcinoma = assay: Subcutaneous tumor growth inhibition in mice; details: mouse, in vivo
Madison Lung = assay: Subcutaneous tumor growth inhibition in mice; details: mouse, in vivo
[6] = literature (Taylor et al.); cited from earlier work
[7] = literature; cited from earlier work
[8] = system: L1210 murine leukemic cells; assay: Inhibition of L1210 murine leukemic cells in tissue culture; assay type: cell-based; details: Mus musculus, read-out: IC₅₀
mouse L1210 leukemia = details: literature; cited from earlier work
[9] = target: T3, Folate Polyglutamate Synthetase; details: relative to folic acid; published data (Moran et al.); cited from earlier work
[10] = relative to folic acid, one hour at 37°C

In the case of Nc1nc2ccc(CCc3ccc(C(=O)N[C@@H](CCC(=O)O)C(=O)O)cc3)nc2c(=O)[nH]1 [8,10-Dideazafolic acid], the “effectiveness as a dihydrofolate reductase inhibitor (in words)” value (dihydrofolate reductase) is given as “only marginally effective”.
With CN(Cc1cnc2nc(N)nc(N)c2n1)c1ccc(C(=O)N[C@@H](CCC(=O)O)C(=O)O)cc1 [Methotrexate, methotrexate, reference compound] the “Mean Increased Life span” value ([1]; dose 2 mg/kg) was 0 days.
For Nc1nc2c(c(=O)[nH]1)CC(CCc1ccc(C(=O)N[C@@H](CCC(=O)O)C(=O)O)cc1)CN2 (stereo partly drawn) [Compound 4, N-(4-[2-(2-amino-4-hydroxy-5,6,7,8-tetrahydropyrido[2,3-d]pyrimidin-6-yl)ethyl]benzoyl)-L-glutamic acid], the “inhibition of dihydrofolate reductase (in words)” value [2] was “weak inhibitor”, the “Rel Vmax” value [3] was 1.24 ± 0.10 and the “activity against L-1210 leukemia (in words)” value (L-1210 leukemia; in vivo) was “good activity”. For the same compound, the “% ILS” value (L-1210 leukemia; in vivo, 2 mg/kg) was 27%, the “% ILS” value (L-1210 leukemia; in vivo, 4 mg/kg) was 35% and the “% ILS” value (L-1210 leukemia; in vivo, 8 mg/kg) was 59%. For the same compound, the “% ILS” value (L-1210 leukemia; in vivo, 12 mg/kg) was 63%, the “Mean Increased Life span in days” value ([1]; 2 mg/kg) was “+8 days” and the “Mean Increased Life span in days” value ([1]; 4 mg/kg) was “+11 days”. The “Mean Increased Life span in days” value ([1]; 8 mg/kg) was “+17 days”, the “Mean Increased Life span in days” value ([1]; 12 mg/kg) was “+25 days” and the “% INHIBITION” value [4] was 100%. The “toxicity (footnote)” value [4] was “† Toxic”, the “% INHIBITION” value (6C3HED Lymphosarcoma) was 91% and 100% and the “% INHIBITION” value (B-16) was 98% and 99% and 100%. The “% INHIBITION” value [5] was 86% and 100%, the “% INHIBITION” value (Lewis Lung Carcinoma) was 58% and 77% and 94% and 100% and the “% INHIBITION” value (Madison Lung) was 54% and 72% and 87% and 90%.
For Nc1nc2ncc(CNc3ccc(C(=O)N[C@@H](CCC(=O)O)C(=O)O)cc3)cc2c(=O)[nH]1 [5-Deazafolic acid], the “cytotoxicity (in words)” value [6] is given as “only weakly cytotoxic”.
For Nc1nc(N)c2nc(CCc3ccc(C(=O)N[C@@H](CCC(=O)O)C(=O)O)cc3)ccc2n1 [8,10-Dideazaaminopterin], the “antimetabolic activity (in words)” value [7] is given as “active”.
In the case of Nc1nc(N)c2nc(CCc3ccc(C(=O)N[C@@H](CCC(=O)O)C(=O)O)cc3)cnc2n1 [10-Deaza-aminopterin], the “antimetabolic activity (in words)” value [7] is given as “highly active”.
In the case of Nc1nc(N)c2c(n1)NCC(CCc1ccc(C(=O)N[C@@H](CCC(=O)O)C(=O)O)cc1)C2 (stereo partly drawn) [Compound 3, N-(4-[2-(2,4-diamino-5,6,7,8-tetrahydropyrido[2,3-d]pyrimidin-6-yl)ethyl]benzoyl)-L-glutamic acid], the pIC50 [2] was 7.15, the “Rel Vmax” value [3, 10] was 1.61 ± 0.05 and the pIC50 [8] was 8.48. For the same compound, the “% ILS” value (L-1210 leukemia; dose 1 mg/kg) was 111%.
For Nc1nc2ccc(CCc3ccc(C(=O)N[C@@H](CCC(=O)O)C(=O)O)cc3)cc2c(=O)[nH]1 [5,8,10-trideazafolic acid], the “activity against mouse L1210 leukemia (in words)” value (mouse L1210 leukemia) is listed as “only marginal activity”.
In the case of Nc1nc(O)c2cc(CCc3ccc(C(=O)N[C@@H](CCC(=O)O)C(=O)O)cc3)cnc2n1 [Compound 2, N-(4-[2-(2-amino-4-hydroxypyrido[2,3-d]pyrimidin-6-yl)ethyl]benzoyl)-L-glutamic acid], the pIC50 [2] was 4.31, the “Rel Vmax” value [3, 10] was 0.90 ± 0.10 and the pIC50 [8] was less than 4.00.
For Nc1nc(N)c2cc(CCc3ccc(C(=O)N[C@@H](CCC(=O)O)C(=O)O)cc3)ccc2n1 [5,8,10-trideazaaminopterin], the “activity against mouse L1210 leukemia (in words)” value (mouse L1210 leukemia) is given as “exhibits activity”.
In the case of Nc1nc2c(c(=O)[nH]1)NC(CNc1ccc(C(=O)N[C@@H](CCC(=O)O)C(=O)O)cc1)CN2 (some centres unmarked) [FH4], the “Rel Vmax” value [9] is given as 1.31 ± 0.07.
For Nc1nc2ncc(CCc3ccc(C(=O)N[C@@H](CCC(=O)O)C(=O)O)cc3)nc2c(=O)[nH]1 [10-deazafolic acid], the “antimetabolic activity (in words)” value [7] is given as “no significant activity”.
For Nc1nc(N)c2cc(CCc3ccc(C(=O)N[C@@H](CCC(=O)O)C(=O)O)cc3)cnc2n1 [Compound 1, N-(4-[2(2,4-diaminopyrido[2,3-d]-pyrimidin-6-yl)ethyl]benzoyl)-L-glutamic acid], the pIC50 [2] was 7.37, the “Rel Vmax” value [3, 10] was 0.35 ± 0.02 and the pIC50 [8] was 7.77. The “% ILS” value (L-1210 leukemia; dose 4 mg/kg) was 130%.
